From publication PMC12120661, “Synthesis and Biological Evaluation of 4‑(4-Nitrophenyl)‑1H‑1,2,3-triazole Derivatives as Antitrypanosomal Agents” (ACS Omega, 2025)
Like-named read-outs stand apart in the source and are kept apart here.

Assays:
[1] = Preliminary cytotoxicity assay, resazurin; format: cell-based; conditions: human MRC-5 cell line, 3 days incubation
Protocol: MRC-5SV2 cell cytotoxicity was assessed following the methodology outlined in earlier literature. Briefly, cells at a concentration of 1.5 × 10^5 cells/mL were cultured with compound dilutions at 37 °C and 5% CO2. Cell growth was compared to untreated-control wells (100% cell growth) and medium-control wells (0% cell growth). After 3 days of incubation, cell viability was fluorometrically assessed following the addition of 50-μL resazurin per well. Fluorescence was measured after 4 h at 37 °C (λex 550 nm, λem 590 nm). The results were expressed as the percentage reduction in cell growth/viability compared to control wells, and an IC50 value was determined.

[2] = tested on: T. cruzi Tulahuen CL2 β-galactosidase strain; assay: Antitrypanosomal screening, anti-T. cruzi (trypomastigote) activity, CPRG photometric method; format: cell-based; conditions: Trypanosoma cruzi; Tulahuen CL2 β-galactosidase strain on MRC-5SV2; values in parentheses mean ± SEM of two experiments
Protocol: A preliminary assay was conducted to evaluate the analogs’ in vitro cytotoxicity and antitrypanosomatid activity against T. cruzi Tulahuen strain (Table ). […] However, the promising results of analog 16 encouraged us to conduct more in-depth studies on this compound.
Anti-parasitic assays were conducted following established protocols outlined in earlier literature. In brief, for assessing anti-T. cruzi activity, the Tulahuen CL2 β-galactosidase strain (nifurtimox-sensitive) was employed and maintained on MRC-5SV2 (human lung fibroblast). A total of 4 × 10^3 cells were infected with 4 × 10^4 parasites per well. The synthesized analogs were tested at concentrations ranging from 1.56 to 50.00 μM. Parasite burdens were evaluated after the addition of the substrate CPRG (chlorophenol red ß-D-galactopyranoside). The change in color was measured spectrophotometrically at 540 nm after 4 h of incubation at 37°C. In all assays, parasite growth was compared to untreated-infected controls (100% growth) and noninfected controls (0% growth). Results were expressed as the percentage of parasite reduction at different drug concentrations and used to calculate IC50 values from the dose–response curves.

[3] = Cytotoxicity against primary mouse macrophages; format: cell-based
Text: 1 In Vitro Anti- T. cruzi (Trypomastigote) Activity and Cytotoxicity Assessment of Hit 1 Analogs ^a | column: PMM CC50 (μM)

trans-sialidase (TcTS) = conditions: literature, cited from earlier work; for inhibition of trans-sialidase: in words
[4] = tested on: T. cruzi nitroreductase (TcNTR72); assay: T. cruzi nitroreductase activity assay (NADH oxidation); conditions: 50 μM NADH, 25 °C
Protocol: TcNTR72 was expressed, purified, and its activity was tested following previously described protocol. […] This mixture was incubated at room temperature for 5 min. […] All assays were performed in triplicate for each measurement and for each concentration. Benznidazole was used as a control.

[5] = tested on: T. cruzi intracellular amastigotes (Colombian strain) in C2C12 cells; assay: Antiamastigote activity, infection index, treatment after infection, C2C12; format: cell-based, Trypanosoma cruzi; conditions: Trypanosoma cruzi; infected C2C12, 48 h treatment after infection
Protocol: (§1) Considering the dynamics of T. cruzi infection in humans, characterized by an increase in parasitic load through intracellular replication of amastigote forms in various cell types, we evaluated the action of the compounds in LLC-MK2 (epithelial cells) and C2C12 (myoblasts) using an in vitro infection model.
(§2) The antiamastigote activity was assessed by calculating the infection index, defined as the percentage of infected cells multiplied by the mean number of amastigotes per cell. Noninfected control cells were subjected to identical treatment conditions to evaluate the cytotoxicity of the compounds (CC50). This comprehensive approach allowed for the simultaneous assessment of antiparasitic efficacy and compound-induced cytotoxicity, offering valuable insights into their therapeutic potential.
(§3) In the infection plate each well was added 50 μL of cold methanol for cell fixation. The plate was kept at −20 °C for 1 h. After this period, the wells were blocked with 50 μL of PBS 1X-Saponin 0.1 + 10% rabbit serum for 10 min at room temperature. Following, the wells were washed four times with PBS 1X-Saponin 0.1% and 50 μL of the same solution was added to each well, incubating for 20 min at room temperature. Subsequently, 50 μL of PBS 1X-Saponin 0.1% + anti-T. cruzi antibody (from serum of infected patients) at a 1:10 dilution was added, and the plate was incubated for 1 h at room temperature. The wells were then washed four times with PBS 1X-Saponin 0.1%, and 50 μL of PBS 1X-Saponin 0.1% + antihuman IgG-FITC at a 1:200 dilution was added. The plate was incubated wrapped in aluminum foil for 30 min. After incubation, the plate was washed four times with PBS 1X-Saponin 0.1%, and 50 μL of PBS 1X was added to all wells after the final wash. For nuclear staining, the plate, already stained with FITC, was washed three times with PBS 1X, and 200 μL of PBS 1X + 1 μL of iodide per well was added. After staining, the wells were washed again, and 100 μL of PBS 1X was added before imaging.
(§4) The plate was analyzed in the EVOS fluorescence microscope for image acquisition and fluorescence identification, in which the anti-IgG-FITC stains parasite′s membrane in green and iodide stains nuclei in red. On each condition of treatment, 200 cells of 3 wells were evaluated as to the number of infected cells and the number of parasites per cell for calculating the index of infection the IC50 were calculated by Nonlinear regression curves (log[inhibitor] vs normalized response). Selective index was calculated by dividing CC50 per IC50.

[6] = Cellular viability (MTT), noninfected LLC-MK2; format: cell-based; conditions: rhesus monkey, noninfected LLC-MK2 epithelial cells; noninfected LLC-MK2, Table 2 (treatment after infection); read-out: CC50 non infected MK2
Protocol: as §2
(§5) Following 24 h of treatment, 10 μL of 5 mg/mL of MTT (3-(4,5-dimethylthiazol-2-yl)-2,5-diphenyltetrazolium bromide) was added per well, and absorbance was evaluated in the Eon Microplate Spectrophotometer Reader (BioTek) at 570–690 nm. CC50 were calculated by Nonlinear regression curves (log[inhibitor] vs normalized response).

[7] = tested on: T. cruzi intracellular amastigotes (Colombian strain) in LLC-MK2 cells; assay: Antiamastigote activity, infection index, treatment after infection, LLC-MK2; format: cell-based, Trypanosoma cruzi; conditions: infected LLC-MK2, 48 h treatment after infection
Protocol: as §1, §2, §3, §4

[8] = tested on: trypomastigotes forms of T. cruzi Tulahuen strain (LacZ); parameters: method as in de Andrade et al., 2015; conditions: previous work of the group; ref de Andrade et al., 2015; read-out: IC50 against trypomastigotes forms of T. cruzi Tulahuen strain (LacZ); cited from earlier work
[9] = Cellular viability (MTT), noninfected C2C12; format: cell-based, murine; conditions: mouse, noninfected C2C12 myoblast cells; noninfected C2C12, Table 2 (treatment after infection); read-out: CC50 non infected C2C12
Protocol: as §2
The LLC-MK2 (ATCC CCL-7) cell line of epithelial origin, and C2C12 (ATCC CRL-1772) myoblast cells, derived from murine myoblasts, were maintained in Roswell Park Memorial Institute-RPMI 1640 medium supplemented with L-glutamine, 25 mM HEPES (Corning), 10% (v/v) fetal bovine serum (FBS), and gentamicin (1 μL/mL). […] Once the cells reached 80% confluence, were detached using Trypsin-EDTA and prepared in the subsequent experiments.
as §5

[10] = mouse, primary mouse macrophages (PMM)

| SMILES | CC50 at 3 days ([1]; MRC-5SV2 lung fibroblast cells) [µM] | IC50 [2] [µM] | CC50 [3, 10] [µM] | other results |
| --- | --- | --- | --- | --- |
| Nc1ccc(-c2cn(Cc3ccc([N+](=O)[O-])cc3)nn2)cc1 [Compound 23, 4-(1-(4-Nitrobenzyl)-1H-1,2,3-triazol-4-yl)aniline] | > 50 | > 50 | > 50 | – |
| O=C(Cn1cc(-c2ccc([N+](=O)[O-])cc2)nn1)NCc1cccnc1 [Compound 11, 2-(4-(4-Nitrophenyl)-1H-1,2,3-triazol-1-yl)-N-((pyridin-3-yl)methyl)acetamide] | > 50 | > 50 | > 50 | – |
| N#Cc1ccc(Cn2cc(-c3ccc([N+](=O)[O-])cc3)nn2)cc1 [Compound 15, 4-((4-(4-Nitrophenyl)-1H-1,2,3-triazol-1-yl)methyl)benzonitrile] | > 50 | > 50 | > 50 | – |
| Cn1cncc1-c1cn(Cc2ccc([N+](=O)[O-])cc2)nn1 [Compound 25, 4-(1-Methyl-1H-imidazol-5-yl)-1-(4-nitrobenzyl)-1H-1,2,3-triazole] | > 50 | > 50 | > 50 | – |
| O=C(O)c1ccc(Cn2cc(-c3ccc([N+](=O)[O-])cc3)nn2)cc1 [Compound 18, 4-((4-(4-Nitrophenyl)-1H-1,2,3-triazol-1-yl)methyl)benzoic Acid] | > 50 | > 50 | > 50 | – |
| O=C(O)Cn1cc(-c2ccc([N+](=O)[O-])cc2)nn1 [Compound 17, 2-(4-(4-Nitrophenyl)-1H-1,2,3-triazol-1-yl)acetic Acid] | > 50 | > 50 | > 50 | – |
| COc1cccc(-c2cn(Cc3ccc([N+](=O)[O-])cc3)nn2)c1 [Compound 26, 4-(3-Methoxyphenyl)-1-(4-nitrobenzyl)-1H-1,2,3-triazole] | > 50 | > 50 | > 50 | – |
| CC(=O)N[C@H]1[C@H]([C@H](O)[C@H](O)CO)OC(C(=O)O)=C[C@@H]1N=C(N)N [Zanamivir] | – | – | – | inhibition of trans-sialidase (trans-sialidase (TcTS)): weak inhibition of trans-sialidase in the millimolar range |
| COc1cc(OC)cc(-c2cn(Cc3ccc([N+](=O)[O-])cc3)nn2)c1 [Compound 28, 4-(3,5-Dimethoxyphenyl)-1-(4-nitrobenzyl)-1H-1,2,3-triazole] | > 50 | > 50 | > 50 | – |
| N#Cc1ccc(CNC(=O)Cn2cc(-c3ccc([N+](=O)[O-])cc3)nn2)cc1 [Compound 13, N-(4-Cyanobenzyl)-2-(4-(4-nitrophenyl)-1H-1,2,3-triazol-1-yl)acetamide] | > 50 | > 50 | 35.4 | – |
| CC(=O)NC1C(O)C(F)C(F)(C(=O)O)OC1C(O)C(O)CO (stereo not drawn) [2,3-difluorosialic acid] | – | – | – | Ki (trans-sialidase (TcTS); irreversible inhibitors): 20000 µM |
| O=C(Cn1cc(-c2ccc([N+](=O)[O-])cc2)nn1)NCc1ccccn1 [Compound 10, 2-(4-(4-Nitrophenyl)-1H-1,2,3-triazol-1-yl)-N-(yridine-2-ylmethyl)acetamide] | > 50 | > 50 | > 50 | – |
| O=[N+]([O-])c1ccc(Cn2cc(-c3ccccc3CO)nn2)cc1 [Compound 27, (2-(1-(4-Nitrobenzyl)-1H-1,2,3-triazol-4-yl)phenyl)methanol] | > 50 | > 50 | > 50 | – |
| O=[N+]([O-])c1ccc(Cn2cc(-c3ccc([N+](=O)[O-])cc3)nn2)cc1 [Compound 24, 1-(4-Nitrobenzyl)-4-(4-nitrophenyl)-1H-1,2,3-triazole] | – | > 50 | – | CC50 at 3 days [1]: > 50 µM; CC50 ([3]; primary mouse macrophages, read-out: PMM CC50): > 50 µM |
| O=[N+]([O-])c1ccc(Cn2cc(-c3ccc(CO)cc3)nn2)cc1 [Compound 21, (4-(1-(4-Nitrobenzyl)-1H-1,2,3-triazol-4-yl)phenyl)methanol] | > 50 | > 50 | > 50 | – |
| OC[C@@H](O)[C@@H](O[C@@H]1O[C@H](CO)[C@H](O)[C@H](O)[C@H]1O)[C@H](O)[C@@H](O)CO [lactitol] | – | – | – | IC50 (trans-sialidase (TcTS); acceptor analog): 570 µM |
| CCOC(=O)C1=C[C@@H](OC(CC)CC)[C@H](NC(C)=O)[C@@H](N)C1 [Oseltamivir] | – | – | – | inhibition of trans-sialidase (trans-sialidase (TcTS)): weak inhibition of trans-sialidase in the millimolar range |
| O=C(Cn1cc(-c2ccc([N+](=O)[O-])cc2)nn1)NCc1ccc(O)cc1 [Compound 12, N-(4-Hydroxybenzyl)-2-(4-(4-nitrophenyl)-1H-1,2,3-triazol-1-yl)acetamide] | > 50 | 31 | > 50 | – |
| O=[N+]([O-])c1ccc(Cn2cc(-c3cccnc3)nn2)cc1 [Compound 22, 3-(1-(4-Nitrobenzyl)-1H-1,2,3-triazol-4-yl)pyridine] | 5.06 | 4.17 | > 50 | – |
| O=C(Cn1ccnc1[N+](=O)[O-])NCc1ccccc1 [BZN, reference compound] | – | 1.64 | – | Kobs (12.5 μM) ([4]; compound 12.5 μM): 0.13 ± 0.01 s^–1; Kobs (25 μM) ([4]; compound 25 μM): 0.17 ± 0.05 s^–1; Kobs (50 μM) ([4]; compound 50 μM): 0.32 ± 0.04 s^–1; Kobs (100 μM) ([4]; compound 100 μM): 0.23 ± 0.07 s^–1; IC50 [5]: 6 ± 1 µM; CC50 at 24 h [6]: 46.9 µM; IC50 ([7]; Trypanosoma cruzi, LLC-MK2, 48 h): 1.43 ± 0.1 µM; IC50 [7]: 1.4 ± 0.1 µM; IC50 [8]: 34 µM; CC50 at 24 h [9]: 74.4 µM |
